In US11046710B2, “Sulfonamide compounds” (DAIICHI SANKYO COMPANY, LIMITED, priority 2016, dated 2021):

Biological target: human TNAP (Homo sapiens (Human), UniProt P05186)
Test: Inhibitory test of TNAP activity (pNPP substrate, p-nitrophenol production)
Format: biochemical
Conditions: human TNAP from transfected COS1 culture supernatant, 60 minutes at room temperature
Protocol: COS1 cells (DS Pharma Biomedical Co., Ltd.) were transfected with human TNAP (OriGene Technologies, Inc.) using Lipofectamine LTX & Plus reagent (Invitrogen Corp.). On the next day, the medium was replaced with a fresh medium, and the cells were cultured in an incubator for 3 days. After 3 days, the culture supernatant was collected and concentrated by centrifugation at 5000 G for 30 minutes using Amicon 14, 10^4 cut (Merck Millipore). The concentrated culture supernatant was dialyzed against 5 L of 50 mM Tris/200 mM NaCl/1 mM MgCl2/20 μM ZnCl2 twice and used as an enzyme source (enzyme solution). The substrate pNPP (ProteoChem Inc.) was adjusted to 3.1 mM with Milli-Q water, and a solution of each test compound dissolved in dimethyl sulfoxide (DMSO; Wako Pure Chemical Industries, Ltd.) by 6 serial dilutions at a 5-fold common ratio from 100 μM, or DMSO was added thereto at a final concentration of 1% by volume. The enzyme solution adjusted to 2 μg/mL with an assay buffer (200 mM Tris/2 mM MgCl2/0.04 mM ZnCl2/0.01% Tween 20) was added in the same amount of the substrate solution and incubated at room temperature for 60 minutes. Then, the absorbance (ABS: 405 nm) was measured using a microplate reader (model plus 384, Molecular Devices, LLC), and the concentration of produced p-nitrophenol was calculated.

human TNAP, sequence (P05186 18-524): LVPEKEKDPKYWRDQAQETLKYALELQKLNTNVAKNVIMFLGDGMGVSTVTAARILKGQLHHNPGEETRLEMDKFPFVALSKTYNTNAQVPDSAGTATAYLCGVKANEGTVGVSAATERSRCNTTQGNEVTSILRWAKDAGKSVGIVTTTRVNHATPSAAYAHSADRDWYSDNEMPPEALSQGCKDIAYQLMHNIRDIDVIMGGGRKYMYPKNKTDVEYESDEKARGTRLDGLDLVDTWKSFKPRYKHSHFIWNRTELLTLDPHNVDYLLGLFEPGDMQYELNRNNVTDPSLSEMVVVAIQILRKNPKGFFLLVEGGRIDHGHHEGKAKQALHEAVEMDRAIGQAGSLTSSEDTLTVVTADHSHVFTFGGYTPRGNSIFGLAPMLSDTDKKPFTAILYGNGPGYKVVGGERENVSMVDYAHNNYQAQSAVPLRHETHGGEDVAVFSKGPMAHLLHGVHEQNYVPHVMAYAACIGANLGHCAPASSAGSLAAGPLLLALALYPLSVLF

| Compound | IC50 [nM] |
| --- | --- |
| CCOc1ccc(F)cc1S(=O)(=O)Nc1cnc2c(c1)-c1ccnn1[C@H](C)CO2 [Example 20, 2-ethoxy-5-fluoro-N-[(5R)-5-methyl-5,6-dihydropyrazolo[1,5-d]pyrido[3,2-f][1,4]oxazepin-10-yl]benzenesulfonamide] | 4.2 |
| CCOc1ncc(F)cc1S(=O)(=O)Nc1cnc2c(c1)-c1ccnn1CCO2 [Example 14, N-(5,6-dihydropyrazolo[1,5-d]pyrido[3,2-f][1,4]oxazepin-10-yl)-2-ethoxy-5-fluoropyridine-3-sulfonamide] | 3.6 |
| CCc1nnc2n1CCOc1ncc(NS(=O)(=O)c3cc(Cl)ccc3OC)cc1-2 [Example 3, 5-chloro-N-(3-ethyl-5,6-dihydropyrido[3,2-f][1,2,4]triazolo[4,3-d][1,4]oxazepin-10-yl)-2-methoxybenzenesulfonamide] | 2.4 |
| COc1ccc(Cl)cc1S(=O)(=O)Nc1cnc2c(c1)CN1C(=O)[C@@H](O)C[C@H]1CO2 [Example 54, 5-chloro-N-[(8S,9aS)-8-hydroxy-7-oxo-8,9,9a,10-tetrahydro-5H,7H-pyrido[3,2-f]pyrrolo[2,1-c][1,4]oxazepin-3-yl]-2-methoxybenzenesulfonamide] | 1.1 |
| COc1ccc(Cl)cc1S(=O)(=O)Nc1cnc2c(c1)-c1nccn1CCO2 [Example 6, 5-chloro-N-(5,6-dihydroimidazo[1,2-d]pyrido[3,2-f][1,4]oxazepin-10-yl)-2-methoxybenzenesulfonamide] | 5.9 |
| COc1ncc(Cl)cc1S(=O)(=O)Nc1cnc2c(c1)-c1ccnn1[C@H](C)CO2 [Example 23, 5-chloro-2-methoxy-N-[(5R)-5-methyl-5,6-dihydropyrazolo[1,5-d]pyrido[3,2-f][1,4]oxazepin-10-yl]pyridine-3-sulfonamide] | 5.7 |
| COc1ncc(Cl)cc1S(=O)(=O)Nc1cnc2c(c1)-c1ccnn1[C@@H](C)CO2 [Example 21, 5-chloro-2-methoxy-N-[(5S)-5-methyl-5,6-dihydropyrazolo[1,5-d]pyrido[3,2-f][1,4]oxazepin-10-yl]pyridine-3-sulfonamide] | 3 |
| O=C1c2cc(NS(=O)(=O)c3cc(Cl)ccc3OC(F)(F)F)cnc2OC[C@H]2C[C@H](O)CN12 [Example 32, 5-chloro-N-[(8S,9aR)-8-hydroxy-5-oxo-8,9,9a,10-tetrahydro-5H,7H-pyrido[3,2-f]pyrrolo[2,1-c][1,4]oxazepin-3-yl]-2-(trifluoromethoxy)benzenesulfonamide] | 0.9 |
| CCOc1ncc(Cl)cc1S(=O)(=O)Nc1cnc2c(c1)-c1ccnn1CCO2 [Example 13, 5-chloro-N-(5,6-dihydropyrazolo[1,5-d]pyrido[3,2-f][1,4]oxazepin-10-yl)-2-ethoxypyridine-3-sulfonamide] | 5.1 |

Second part, the molecule after the results:

| IC50 [nM] | Compound |
| --- | --- |
| 2.4 | O=C1c2cc(NS(=O)(=O)c3cc(F)ccc3OC(F)(F)F)cnc2OC[C@H]2C[C@@H](O)CN12 [Example 39, 5-fluoro-N-[(8R,9aR)-8-hydroxy-5-oxo-8,9,9a,10-tetrahydro-5H,7H-pyrido[3,2-f]pyrrolo[2,1-c][1,4]oxazepin-3-yl]-2-(trifluoromethoxy)benzenesulfonamide] |
| 2.2 | COc1ccc(Cl)cc1S(=O)(=O)Nc1cnc2c(c1)CN1C(=O)CC[C@H]1CO2 [Example 52, 5-chloro-2-methoxy-N-[(9aS)-7-oxo-8,9,9a,10-tetrahydro-5H,7H-pyrido[3,2-f]pyrrolo[2,1-c][1,4]oxazepin-3-yl]benzenesulfonamide] |
| 3.8 | COc1ccc(Cl)cc1S(=O)(=O)Nc1cnc2c(c1)CN1C(=O)OC[C@H]1CO2 [Example 58, 5-chloro-2-methoxy-N-[(9aR)-7-oxo-9a,10-dihydro-5H, 9H-[1,3]oxazolo[4,3-c]pyrido[3,2-f][1,4]oxazepin-3-yl]benzenesulfonamide] |
| 0.5 | COc1ccc(Cl)cc1S(=O)(=O)Nc1cnc2c(c1)C(=O)N1C[C@@H](OC)C[C@@H]1CO2 [Example 46, 5-chloro-2-methoxy-N-[(8S,9aR)-8-methoxy-5-oxo-8,9,9a,10-tetrahydro-5H,7H-pyrido[3,2-f]pyrrolo[2,1-c][1,4]oxazepin-3-yl]benzenesulfonamide] |
